Measurements as given in article PMC8041193 (PLoS ONE, 2021).
Ends that are not written are not given here.

Legend:
[1] = LA concentration in porcine intestinal fluid collected via in vivo ultrafiltration probes, UPLC-MS/MS; conditions: pig; for Concentration of LA fragments in duodenal and jejunal samples: oral 1 mg LA, fragments detected, all concentrations below the LLOQ, UPLC-MS/MS; for level at time molar at 1 h / level at time molar at 2 h / level at time molar at 3 h / level at time molar at 4 h: female, Yorkshire cross, po, 1 mg;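 on all read-outs here: pigs aged 6–8 weeks and weighing 15–20 kg, intestinal fluid sampled through surgically implanted ultrafiltration probes whose placement was checked post mortem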
Protocol: Three female Yorkshire cross pigs weighing between 15–20 kg and 6–8 weeks of age were used in this study. […] All pigs were considered healthy on the basis of physical exams, which were performed upon delivery and after a minimum of 3 days’ acclimatization. The animals were housed individually in stainless steel pens to allow comprehensive observation of changes to the animal’s behavior, feed consumption, and volume or character of excreta. While housed in pens, each animal had free access to water, and commercial pig pelleted feed was provided twice daily.
Pigs were sedated with injection of ketamine (11 mg/kg, IM; Vedco) and xylazine (0.25 mg/kg, IM; Akorn Animal Health). Intravenous administration of buprenorphine (0.04 mg/kg; Par Pharmaceutical) and intramuscular administration of flunixin meglumine (2.2 mg/kg; Norbrook) and ceftiofur sodium (Excede for Swine, 8mg/kg; Med Pharmex Inc) were given for analgesia and infection prophylaxis, respectively. Pigs were intubated and maintained under general anesthesia using isoflurane delivered in 100% oxygen during the surgery. The abdomen was approached via midline laparotomy, and the pylorus was located. The duodenum was traced from the pylorus to an accessible point on the left side of the abdomen approximately 15–18 cm distal to the pylorus (Fig 2). The intestine was lifted and an incision was made using a #11 scalpel blade, piercing the anti-mesenteric intestinal wall into the lumen. A guide needle was used to introduce the UF probe into the duodenum threading the probe proximally toward the pylorus. The guide needle was subsequently removed, taking care to leave the UF probe in place [20]. The three loops of the UF probe remained within the intestine, and each probe was secured in the intestine by using a Halstead pattern suture around the probe, followed by a finger trap suture pattern using 3–0 Vicryl (Henry Schein). The nonpermeable connection tubing of the UF probe was extended to the lateral body wall, paramedian to the incision, and retrieved through a guide needle in order to exteriorize the tubing. The tubing was secured outside the animal by suturing the tubing to the skin using 3–0 nylon suture (Fig 3). The tubing was attached to a needle inserted into a vacutainer for sample collection during the remainder of the experiment. A second UF probe was placed into the jejunum 20 cm distal to the duodenum using the same methodology (Fig 2). The abdomen was closed in a routine manner. The pigs were monitored for assessment of pain each day of the experiment and given buprenorphine as an analgesic medication if necessary.
The formulated beads were weighed and placed into gelatin capsules prior to dosing.

[2] = cited from earlier work
Source text: In vitro dissolution is the standard method used in the pharmaceutical industry to assess drug release from solid oral dosage forms and to predict the release profile in the GI tract by simulating the GI environment with appropriate buffer media. In vivo/ in vitro correlation analysis (IVIVC) was specifically designed to assess whether in vitro predictions match in vivo drug behavior. However, in this study IVIVC could not be performed for several reasons, including the lack of an injectable formulation, an immediate release and other multiple other extended release formulations and the ...

[3] = Non compartmental pharmacokinetic analysis of LA in porcine intestinal fluid; type: in vivo; conditions: pig intestinal fluid, oral LA 1 mg total (~0.05 mg/kg)
Protocol: Non compartmental pharmacokinetic analyses of LA in the intestinal fluid was performed using commercially available software (Phoenix® WinNonlin® Software version 8.3, Certara, Princeton, NJ). The pharmacokinetic parameters estimated for LA in intestinal fluid after oral administration included the elimination rate constant (λz), elimination half life (HLλz), the area under the curve from time zero to the last time point (AUClast), the maximum concentration (Cmax), time to maximum concentration (Tmax), the mean drug residence time from time zero to the last time point (MRTlast), which were calculated using the linear log trapezoidal method.

[4] = distal duodenum, mean of 3 dose replicates
[5] = proximal jejunum, mean of 3 dose replicates
[6] = intestinal fluid (distal duodenum)
[7] = intestinal fluid (proximal jejunum)
[8] = intestinal fluid, distal duodenum
[9] = intestinal fluid, proximal jejunum

## H-Val-Leu-Val-Gln-Pro-OH [Fragment 4]
[1]
  Concentration of LA fragments in duodenal and jejunal samples: < 170 nM

## H-GVLVQPG-OH [Fragment 1]
[1]
  Concentration of LA fragments in duodenal and jejunal samples: < 150 nM

## GGVLVQPG [LA, Larazotide acetate]
[2]; all groups administered 0.25, 1, 4 and 8 mg LA, below the LOQ
  Concentrations in human plasma: < 0.5 ng/mL
[2]; human plasma, oral LA (12mg), HPLC-MS/MS, all below LLOQ
  Plasma concentrations: < 0.5 ng/mL
[3]; distal duodenum, dose replicate # 1
  MRTlast, mean residence time from time zero to the last time point: 1.58 h
[3]; distal duodenum, dose replicate # 2
  MRTlast, mean residence time from time zero to the last time point: 1.42 h
[3]; distal duodenum, dose replicate # 3
  MRTlast, mean residence time from time zero to the last time point: 1.65 h
[3]; [4]
  AUClast, area under the curve from time zero to the last time point: 770 ng·h/mL
  Cmax, maximum concentration: 530 ng/mL
  HLλz, elimination half life: 0.65 h
  MRTlast, mean residence time from time zero to the last time point: 1.55 h
  Tmax, time to the maximum concentration: 1 h
  Λz, elimination rate constant: 1.14 h⁻¹
[3]; proximal jejunum, dose replicate # 1
  MRTlast, mean residence time from time zero to the last time point: 1.31 h
[3]; proximal jejunum, dose replicate # 2
  MRTlast, mean residence time from time zero to the last time point: 1.26 h
[3]; proximal jejunum, dose replicate # 3
  MRTlast, mean residence time from time zero to the last time point: 1.53 h
[3]; [5]
  AUClast, area under the curve from time zero to the last time point: 910 ng·h/mL
  Cmax, maximum concentration: 780 ng/mL
  HLλz, elimination half life: 0.76 h
  MRTlast, mean residence time from time zero to the last time point: 1.37 h
  Tmax, time to the maximum concentration: 1 h
  Λz, elimination rate constant: 1.0 h⁻¹
[1]; [6]
  level at time molar at 1 h: 0.74 ± 0.3 µM
  level at time molar at 2 h: 0.27 ± 0.14 µM
  level at time molar at 3 h: 0.12 ± 0.09 µM
  level at time molar at 4 h: 0.03 ± 0.01 µM
[1]; [7]
  level at time molar at 1 h: 1.1 ± 0.48 µM
  level at time molar at 2 h: 0.25 ± 0.13 µM
  level at time molar at 3 h: 0.09 ± 0.1 µM
  level at time molar at 4 h: 0.03 ± 0.04 µM
[1]; [8]
  level at time molar at 1 h: 0.74 µM
  level at time molar at 2 h: 0.27 µM
  level at time molar at 3 h: 0.12 µM
  level at time molar at 4 h: 0.03 µM
[1]; intestinal fluid, distal duodenum, LA concentration (µM), oral 1 mg LA human clinical formulation, 1h, case number 1, single measurement
  level at time molar at 1 h: 0.32 µM
[1]; intestinal fluid, distal duodenum, LA concentration (µM), oral 1 mg LA human clinical formulation, 1h, case number 2, single measurement
  level at time molar at 1 h: 0.98 µM
[1]; intestinal fluid, distal duodenum, LA concentration (µM), oral 1 mg LA human clinical formulation, 1h, case number 3, single measurement
  level at time molar at 1 h: 0.93 µM
[1]; intestinal fluid, distal duodenum, LA concentration (µM), oral 1 mg LA human clinical formulation, 2h, case number 1, single measurement
  level at time molar at 2 h: 0.14 µM
[1]; intestinal fluid, distal duodenum, LA concentration (µM), oral 1 mg LA human clinical formulation, 2h, case number 2, single measurement
  level at time molar at 2 h: 0.21 µM
[1]; intestinal fluid, distal duodenum, LA concentration (µM), oral 1 mg LA human clinical formulation, 2h, case number 3, single measurement
  level at time molar at 2 h: 0.47 µM
[1]; intestinal fluid, distal duodenum, LA concentration (µM), oral 1 mg LA human clinical formulation, 3h, case number 1, single measurement
  level at time molar at 3 h: 0.03 µM
[1]; intestinal fluid, distal duodenum, LA concentration (µM), oral 1 mg LA human clinical formulation, 3h, case number 2, single measurement
  level at time molar at 3 h: 0.09 µM
[1]; intestinal fluid, distal duodenum, LA concentration (µM), oral 1 mg LA human clinical formulation, 3h, case number 3, single measurement
  level at time molar at 3 h: 0.25 µM
[1]; intestinal fluid, distal duodenum, LA concentration (µM), oral 1 mg LA human clinical formulation, 4h, case number 1, single measurement
  level at time molar at 4 h: 0.03 µM
[1]; intestinal fluid, distal duodenum, LA concentration (µM), oral 1 mg LA human clinical formulation, 4h, case number 2, single measurement
  level at time molar at 4 h: 0.02 µM
[1]; intestinal fluid, distal duodenum, LA concentration (µM), oral 1 mg LA human clinical formulation, 4h, case number 3, single measurement
  level at time molar at 4 h: 0.03 µM
[1]; [9]
  level at time molar at 1 h: 1.1 µM
  level at time molar at 2 h: 0.25 µM
  level at time molar at 3 h: 0.09 µM
  level at time molar at 4 h: 0.03 µM
[1]; intestinal fluid, proximal jejunum, LA concentration (µM), oral 1 mg LA human clinical formulation, 1h, case number 1, single measurement
  level at time molar at 1 h: 0.65 µM
[1]; intestinal fluid, proximal jejunum, LA concentration (µM), oral 1 mg LA human clinical formulation, 1h, case number 2, single measurement
  level at time molar at 1 h: 1.76 µM
[1]; intestinal fluid, proximal jejunum, LA concentration (µM), oral 1 mg LA human clinical formulation, 1h, case number 3, single measurement
  level at time molar at 1 h: 0.88 µM
[1]; intestinal fluid, proximal jejunum, LA concentration (µM), oral 1 mg LA human clinical formulation, 2h, case number 1, single measurement
  level at time molar at 2 h: 0.13 µM
[1]; intestinal fluid, proximal jejunum, LA concentration (µM), oral 1 mg LA human clinical formulation, 2h, case number 2, single measurement
  level at time molar at 2 h: 0.18 µM
[1]; intestinal fluid, proximal jejunum, LA concentration (µM), oral 1 mg LA human clinical formulation, 2h, case number 3, single measurement
  level at time molar at 2 h: 0.43 µM
[1]; intestinal fluid, proximal jejunum, LA concentration (µM), oral 1 mg LA human clinical formulation, 3h, case number 1, single measurement
  level at time molar at 3 h: 0.04 µM
[1]; intestinal fluid, proximal jejunum, LA concentration (µM), oral 1 mg LA human clinical formulation, 3h, case number 3, single measurement
  level at time molar at 3 h: 0.22 µM
[1]; intestinal fluid, proximal jejunum, LA concentration (µM), oral 1 mg LA human clinical formulation, 4h, case number 2, single measurement
  level at time molar at 4 h: 0.09 µM
[1]; fasted, oral 1 mg LA clinical formulation, proximal jejunum, 2–4 hours, range of individual samples
  Continued presence of LA, concentration in proximal jejunum: 0.00 to 0.43 µM
[1]; oral 1 mg LA human clinical formulation, proximal jejunum, 0h, case number 2, single measurement
  LA concentration: 0.00 µM
[1]; oral 1 mg LA human clinical formulation, proximal jejunum, 0h, case number 3, single measurement
  LA concentration: 0.00 µM
[1]; oral 1 mg LA human clinical formulation, proximal jejunum, 3h, case number 2, single measurement, below LOD reported as zero
  LA concentration: 0.00 µM
[1]; oral 1 mg LA human clinical formulation, proximal jejunum, 4h, case number 1, single measurement, below LOD reported as zero
  LA concentration: 0.00 µM
[1]; oral 1 mg LA human clinical formulation, proximal jejunum, 4h, case number 3, single measurement, below LOD reported as zero
  LA concentration: 0.00 µM

## H-GGVLVQP-OH [Fragment 3]
[1]
  Concentration of LA fragments in duodenal and jejunal samples: < 150 nM

## H-VLVQPG-OH [Fragment 2]
[1]
  Concentration of LA fragments in duodenal and jejunal samples: < 160 nM
